Laboratory results as given in PubChem BioAssay AID248 (DTP/NCI, 2004).
Where “and” joins values, the source holds several entries; their conditions need not be identical. Equal values may be shown once. Inconclusive results and toxic doses are left out. Cut-off read from the data, not from the text of the source: active = T/C of 150% or more; inactive = T/C below 125%. Square brackets hold non-standard residues; d marks the D form. Peptide text beside a SMILES is read from it. * marks the point of attachment. Arg(NO2) = N=C(NCCC[CH](N)C(=O)O)N[N+](=O)[O-]; Cbz = O=C(OCc1ccccc1)*

Test system: L1210 leukemia ip in BDF1 mice, survival T/C
Assay: NCI In Vivo Anticancer Drug Screen. Data for tumor model L1210 Leukemia (intraperitoneal) in B6D2F1 (BDF1) mice
Settings: endpoint: mean survival time, higher = longer survival
How it was run: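 Transplantable tumor model; survival measured in treated vs vehicle control mice. Value = treated/control.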

[1] = dose: 25.0 mg/kg/injection, schedule: Q01DX009 (ip), vehicle: Klucel (hydroxypropylcellulose) (HPC)
[2] = dose: 100.0 mg/kg/injection, schedule: Q01DX009 (ip), vehicle: Klucel (hydroxypropylcellulose) (HPC)
[3] = dose: 200.0 mg/kg/injection, schedule: Q01DX009 (ip), vehicle: Klucel (hydroxypropylcellulose) (HPC)
[4] = dose: 400.0 mg/kg/injection, schedule: Q01DX009 (ip), vehicle: Klucel (hydroxypropylcellulose) (HPC)
[5] = dose: 100.0 mg/kg/injection, schedule: Q01DX001 (ip), vehicle: saline
[6] = dose: 200.0 mg/kg/injection, schedule: Q01DX001 (ip), vehicle: saline
[7] = dose: 200.0 mg/kg/injection, schedule: Q04DX002 (ip), vehicle: Klucel (hydroxypropylcellulose) (HPC)

Measured: T/C

CC1(C)C(=NO)C(C)(C)C1=NO
inactive: dose: 12.5 mg/kg/injection, schedule: Q01DX009 (ip), vehicle: Klucel (hydroxypropylcellulose) (HPC) 105 % of control | dose: 12.5 mg/kg/injection, schedule: Q04DX003 (ip), vehicle: Klucel (hydroxypropylcellulose) (HPC) 108 % of control | [1] 106 % of control | dose: 50.0 mg/kg/injection, schedule: Q04DX003 (ip), vehicle: Klucel (hydroxypropylcellulose) (HPC) 104 % of control

Cc1ccc(C(=O)C(Br)C(Br)c2ccc(C)cc2)cc1 (configuration not stated)
inactive: dose: 100.0 mg/kg/injection, schedule: Q01DX001 (ip), vehicle: Klucel (hydroxypropylcellulose) (HPC) 105 % of control | [2] 96 % of control | dose: 200.0 mg/kg/injection, schedule: Q01DX001 (ip), vehicle: Klucel (hydroxypropylcellulose) (HPC) 99 % of control | [3] 91 % of control | dose: 400.0 mg/kg/injection, schedule: Q01DX001 (ip), vehicle: Klucel (hydroxypropylcellulose) (HPC) 94 % of control | [4] 95 % of control

C=CCON(C)c1ccccc1
inactive: dose: 100.0 mg/kg/injection, schedule: Q04DX003 (ip), vehicle: saline 94 % of control | dose: 200.0 mg/kg/injection, schedule: Q04DX003 (ip), vehicle: saline 108 % of control | dose: 400.0 mg/kg/injection, schedule: Q04DX003 (ip), vehicle: saline 96 % of control

CC1(C)OCC(C2OC(=O)C=C2OS(=O)(=O)O)O1 (configuration not stated)
inactive: dose: 75.0 mg/kg/injection, schedule: Q01DX001 (ip), vehicle: saline 95 % of control

O=C1C=C2C=CC3CC2(O1)C1CCCCN31 (configuration not stated)
inactive: dose: 10.0 mg/kg/injection, schedule: Q01DX001 (ip), vehicle: saline 105 % of control | dose: 20.0 mg/kg/injection, schedule: Q01DX001 (ip), vehicle: saline 100 % of control | [5] 105 % of control and 102 % of control | [6] 104 % of control and 102 % of control

CCOC(=O)NP(=O)(Nc1ccccc1)Nc1ccccc1
inactive: dose: 50.0 mg/kg/injection, schedule: Q01DX001 (ip), vehicle: alcohol 104 % of control | dose: 100.0 mg/kg/injection, schedule: Q01DX001 (ip), vehicle: alcohol 98 % of control | dose: 200.0 mg/kg/injection, schedule: Q01DX001 (ip), vehicle: alcohol 102 % of control | dose: 400.0 mg/kg/injection, schedule: Q01DX001 (ip), vehicle: alcohol 104 % of control

O=C(CCN1CC1)Nc1ccc(Cl)c(Cl)c1
inactive: dose: 20.0 mg/kg/injection, schedule: Q04DX003 (ip), vehicle: Klucel (hydroxypropylcellulose) (HPC) 88 % of control | [1] 98 % of control | dose: 40.0 mg/kg/injection, schedule: Q04DX003 (ip), vehicle: Klucel (hydroxypropylcellulose) (HPC) 98 % of control | dose: 50.0 mg/kg/injection, schedule: Q01DX009 (ip), vehicle: Klucel (hydroxypropylcellulose) (HPC) 101 % of control | dose: 80.0 mg/kg/injection, schedule: Q04DX003 (ip), vehicle: Klucel (hydroxypropylcellulose) (HPC) 92 % of control | dose: 100.0 mg/kg/injection, schedule: Q04DX003 (ip), vehicle: Klucel (hydroxypropylcellulose) (HPC) 86 % of control

CNC(=O)Nc1nc2ccccc2s1
inactive: dose: 50.0 mg/kg/injection, schedule: Q04DX002 (ip), vehicle: Klucel (hydroxypropylcellulose) (HPC) 91 % of control | [2] 103 % of control | dose: 100.0 mg/kg/injection, schedule: Q04DX002 (ip), vehicle: Klucel (hydroxypropylcellulose) (HPC) 97 % of control and 98 % of control | [3] 93 % of control | [7] 94 % of control | [4] 93 % of control | dose: 400.0 mg/kg/injection, schedule: Q04DX002 (ip), vehicle: Klucel (hydroxypropylcellulose) (HPC) 90 % of control

O=C1c2cscc2C(=O)c2sccc21
inactive: dose: 100.0 mg/kg/injection, schedule: Q01DX001 (ip), vehicle: saline with Tween-80 100 % of control | dose: 200.0 mg/kg/injection, schedule: Q01DX001 (ip), vehicle: saline with Tween-80 102 % of control | dose: 400.0 mg/kg/injection, schedule: Q01DX001 (ip), vehicle: saline with Tween-80 96 % of control

COC(=O)C(CCCN=C(N)N[N+](=O)[O-])NC(=O)C(Cc1ccccc1)NC(=O)C1CCCN1C(=O)OCc1ccccc1 (stereo not drawn) (Cbz-Pro-Phe-[Arg(NO2)]-OMe; configuration not given here)
inactive: [5] 90 % of control | [6] 96 % of control | dose: 400.0 mg/kg/injection, schedule: Q01DX001 (ip), vehicle: saline 92 % of control

C=CCCCCCCCCC(=O)N/N=C/c1ccc(NC(C)=O)cc1
inactive: dose: 12.5 mg/kg/injection, schedule: Q01DX001 (ip), vehicle: other 90 % of control | dose: 12.5 mg/kg/injection, schedule: Q01DX009 (ip), vehicle: other 95 % of control and 96 % of control | dose: 12.5 mg/kg/injection, schedule: Q04DX003 (ip), vehicle: other 96 % of control | dose: 25.0 mg/kg/injection, schedule: Q01DX001 (ip), vehicle: other 91 % of control | dose: 25.0 mg/kg/injection, schedule: Q01DX009 (ip), vehicle: other 114 % of control and 92 % of control | dose: 25.0 mg/kg/injection, schedule: Q04DX003 (ip), vehicle: other 102 % of control | dose: 50.0 mg/kg/injection, schedule: Q01DX009 (ip), vehicle: carboxymethylcellulose (CMC) 98 % of control and 100 % of control | dose: 50.0 mg/kg/injection, schedule: Q04DX003 (ip), vehicle: other 93 % of control | dose: 100.0 mg/kg/injection, schedule: Q01DX009 (ip), vehicle: carboxymethylcellulose (CMC) 96 % of control | dose: 100.0 mg/kg/injection, schedule: Q01DX009 (ip), vehicle: other 98 % of control | dose: 100.0 mg/kg/injection, schedule: Q04DX002 (ip), vehicle: carboxymethylcellulose (CMC) 90 % of control | dose: 100.0 mg/kg/injection, schedule: Q04DX003 (ip), vehicle: other 94 % of control | dose: 200.0 mg/kg/injection, schedule: Q01DX009 (ip), vehicle: carboxymethylcellulose (CMC) 100 % of control and 92 % of control | dose: 200.0 mg/kg/injection, schedule: Q01DX009 (ip), vehicle: other 89 % of control | [7] 114 % of control | dose: 200.0 mg/kg/injection, schedule: Q04DX002 (ip), vehicle: carboxymethylcellulose (CMC) 90 % of control | dose: 200.0 mg/kg/injection, schedule: Q04DX003 (ip), vehicle: other 92 % of control | dose: 400.0 mg/kg/injection, schedule: Q04DX002 (ip), vehicle: carboxymethylcellulose (CMC) 92 % of control | dose: 400.0 mg/kg/injection, schedule: Q04DX003 (ip), vehicle: other 86 % of control

C=C(C)[C@@H]1CC[C@]2(C(=O)OC)CC[C@]3(C)[C@H](CC[C@@H]4[C@@]5(C)CC[C@H](O)C(C)(C)[C@@H]5CC[C@]43C)[C@@H]12
inactive: dose: 100.0 mg/kg/injection, schedule: Q04DX003 (ip), vehicle: alcohol 103 % of control | dose: 200.0 mg/kg/injection, schedule: Q04DX003 (ip), vehicle: alcohol 100 % of control | dose: 400.0 mg/kg/injection, schedule: Q04DX003 (ip), vehicle: alcohol 91 % of control

O=C(Cl)C1CCC1C(=O)Cl (configuration not stated)
inactive: dose: 75.0 mg/kg/injection, schedule: Q01DX001 (ip), vehicle: carboxymethylcellulose (CMC) 102 % of control | dose: 150.0 mg/kg/injection, schedule: Q01DX001 (ip), vehicle: carboxymethylcellulose (CMC) 91 % of control

CCCCCCCCCCCCCCCC[N+]1(CC)CCCC1
inactive: dose: 25.0 mg/kg/injection, schedule: Q04DX002 (ip), vehicle: saline 96 % of control | dose: 50.0 mg/kg/injection, schedule: Q04DX002 (ip), vehicle: saline 96 % of control
